Measured values: publication PMC9239272 (mBio, 2022)

Tests used:
SARS2 M^pro M49D = format: cell-based, SARS-CoV-2
P168G SARS2 M^pro = P168G SARS2 M^pro (Severe acute respiratory syndrome coronavirus 2, UniProt P0DTD1, P3431G); format: biochemical, SARS-CoV-2
SARS2 M^pro Q189E = format: cell-based, SARS-CoV-2
SARS2 M^pro P168S [1] = format: cell-based, SARS-CoV-2
SARS2 M^pro P168G [2] = format: cell-based, SARS-CoV-2
P168S SARS2 M^pro = P168S SARS2 M^pro (Severe acute respiratory syndrome coronavirus 2, UniProt P0DTD1, P3431S); format: biochemical, SARS-CoV-2
SARS2 M^pro Q189N = format: cell-based, SARS-CoV-2
SARS2 M^pro M49I = format: cell-based, SARS-CoV-2
SARS2 M^pro P168S [3] = format: cell-based, SARS-CoV-2; remark: listed apart in the source
SARS2 M^pro P168G [4] = format: cell-based, SARS-CoV-2; remark: listed apart in the source
[5] = tested on: SARS2 H132 (Omicron) M^pro; format: cell-based, SARS-CoV-2

**Q.** Which “effect of amino acid change on inhibition” value (SARS2 M^pro M49D) does the source give for `CC(C)(C)NC(=O)N[C@H](C(=O)N1C[C@H]2[C@@H]([C@H]1C(=O)NC(CC1CCC1)C(=O)C(N)=O)C2(C)C)C(C)(C)C` (stereo partly shown) [boceprevir] here?
**A.** The value was “slight resistance”.

**Q.** And the “lower IC50 than wild-type Mpro” value (P168G SARS2 M^pro)?
**A.** The value was “approximately 10 fold”.

**Q.** And the “effect of amino acid change on inhibition” value (SARS2 M^pro Q189E)?
**A.** Its value is “slight resistance”.

**Q.** And the “eGFP signal localization compared with wild-type construct” value (SARS2 M^pro P168S [1])?
**A.** The value was “increase in membrane-tethered cytosolic eGFP signal”.

**Q.** What about the “average increase in luciferase signal over wild type” value (SARS2 M^pro P168G [2]) of the same compound?
**A.** The value was 4 fold.

**Q.** What about the “effect of amino acid change on inhibition” value (SARS2 M^pro P168G [2]) of the same compound?
**A.** The value was “hypersensitivity”.

**Q.** What about the “lower IC50 than wild-type Mpro” value (P168S SARS2 M^pro) of the same compound?
**A.** Its value is “approximately 10 fold”.

**Q.** And the “effect of amino acid change on inhibition” value (SARS2 M^pro Q189N)?
**A.** Its value is “slight resistance”.

**Q.** What about the “effect of amino acid change on inhibition” value (SARS2 M^pro M49I) of the same compound?
**A.** The value was “slight resistance”.

**Q.** And the “average increase in luciferase signal over wild type” value (SARS2 M^pro P168S [3])?
**A.** The value was 4 fold.

**Q.** What about the “effect of amino acid change on inhibition” value (SARS2 M^pro P168S [3]) of the same compound?
**A.** The value was “hypersensitivity”.

**Q.** And the “eGFP signal localization compared with wild-type construct” value (SARS2 M^pro P168G [4])?
**A.** Its value is “increase in membrane-tethered cytosolic eGFP signal”.

**Q.** How did the “sensitivity of Omicron (P132H) Mpro” value [5] turn out when `CC(C)(C)[C@H](NC(=O)C(F)(F)F)C(=O)N1C[C@H]2[C@@H]([C@H]1C(=O)N[C@H](C#N)C[C@@H]1CCNC1=O)C2(C)C` [nirmatrelvir] was run?
**A.** The value was “retains sensitivity”.

**Q.** For GC376, which “decrease of inhibitor efficacy versus wild type” value (SARS2 M^pro M49D) is on record?
**A.** The value was 2.1 fold.

**Q.** And the “effect of amino acid change on inhibition” value (SARS2 M^pro Q189E)?
**A.** The value was “minimal effects”.

**Q.** What about the “effect of amino acid change on inhibition” value (SARS2 M^pro P168G [2]) of the same compound?
**A.** The value was “minimal effects”.

**Q.** And the “decrease of inhibitor efficacy versus wild type” value (SARS2 M^pro Q189N)?
**A.** Its value is 1.8 fold.

**Q.** And the “effect of amino acid change on inhibition” value (SARS2 M^pro M49I)?
**A.** The value was “minimal effects”.

**Q.** And the “effect of amino acid change on inhibition” value (SARS2 M^pro P168S [3])?
**A.** The value was “minimal effects”.
